Test results reported in ChEMBL document CHEMBL5053551, “Structure-Based Design of Dual Partial Peroxisome Proliferator-Activated Receptor γ Agonists/Soluble Epoxide Hydrolase Inhibitors” (J Med Chem, 2021).
Activity calls are given as the source filed them. The rule behind the calls is not given here.

How the values were obtained:
[1] = molecular target: T1, Bifunctional epoxide hydrolase 2 (Homo sapiens, UniProt P34913); test: Inhibition of recombinant human full length sEH assessed as reduction in 6-methoxy-2-naphthaldehyde formation using PHOME as substrate preincubated for 30 to 45 mins followed by substrate addition and measured after 30 to 45 mins by fluorescence assay
T1 sequence (P34913 whole entry): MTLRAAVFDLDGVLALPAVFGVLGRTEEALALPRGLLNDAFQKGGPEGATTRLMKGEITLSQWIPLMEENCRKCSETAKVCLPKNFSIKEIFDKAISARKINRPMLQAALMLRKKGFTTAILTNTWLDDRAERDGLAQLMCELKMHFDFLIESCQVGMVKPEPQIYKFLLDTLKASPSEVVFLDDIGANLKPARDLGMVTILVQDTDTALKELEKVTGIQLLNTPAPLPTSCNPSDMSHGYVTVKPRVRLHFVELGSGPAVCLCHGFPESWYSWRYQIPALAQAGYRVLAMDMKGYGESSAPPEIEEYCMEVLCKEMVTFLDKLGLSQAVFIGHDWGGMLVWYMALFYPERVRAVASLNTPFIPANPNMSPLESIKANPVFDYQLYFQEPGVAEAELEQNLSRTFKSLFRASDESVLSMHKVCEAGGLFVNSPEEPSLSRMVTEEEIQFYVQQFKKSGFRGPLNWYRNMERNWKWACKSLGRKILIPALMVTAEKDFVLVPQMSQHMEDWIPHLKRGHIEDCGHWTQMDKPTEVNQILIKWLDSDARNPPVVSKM

[2] = molecular target: T2, Peroxisome proliferator-activated receptor gamma (Homo sapiens, UniProt P37231); test: Partial agonist activity at GAL4-tagged human PPARgamma LBD expressed in HEK293T cells incubated for 12 to 14 hrs by dual-Glo luciferase assay; format: cell-based
T2 sequence (P37231 whole entry): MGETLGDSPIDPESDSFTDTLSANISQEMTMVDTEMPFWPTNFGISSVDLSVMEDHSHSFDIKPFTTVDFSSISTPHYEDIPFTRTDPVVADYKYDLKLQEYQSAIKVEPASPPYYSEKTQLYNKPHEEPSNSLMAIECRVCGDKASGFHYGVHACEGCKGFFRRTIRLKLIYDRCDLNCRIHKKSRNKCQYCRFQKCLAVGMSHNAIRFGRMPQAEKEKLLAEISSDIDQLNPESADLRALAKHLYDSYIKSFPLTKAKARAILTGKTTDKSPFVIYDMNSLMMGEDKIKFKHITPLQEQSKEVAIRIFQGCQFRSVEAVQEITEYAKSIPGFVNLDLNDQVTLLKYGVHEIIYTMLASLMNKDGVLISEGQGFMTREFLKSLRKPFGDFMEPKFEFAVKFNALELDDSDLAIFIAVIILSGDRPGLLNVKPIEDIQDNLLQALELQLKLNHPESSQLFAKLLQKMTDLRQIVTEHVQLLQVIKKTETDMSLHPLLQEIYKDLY

[3] = molecular target: T3, Peroxisome proliferator-activated receptor gamma (Homo sapiens) (UniProt P37231); test: Partial agonist activity at GAL4-tagged human PPARgamma LBD expressed in HEK293T cells at 10 uM incubated for 12 to 14 hrs by dual-Glo luciferase assay; format: cell-based; conditions: time 12-14 hrs
T3 sequence (whole entry): T2 sequence (P37231 whole entry)

[4] = Stability of compound in Sprague-Dawley rat liver microsomes assessed as half life at 10 uM preincubated for 5 mins in presence of NADPH regenerating system followed by microsomal addition and measured upto 60 mins by HPLC analysis; format: ADME, Microsome; conditions: time 65 min
[5] = Stability of compound in BALB/c mouse liver microsomes assessed as half life at 10 uM preincubated for 5 mins in presence of NADPH regenerating system followed by microsomal addition and measured upto 60 mins by HPLC analysis; format: ADME, Microsome; conditions: time 65 min
[6] = Stability of compound in human liver microsomes assessed as half life at 10 uM preincubated for 5 mins in presence of NADPH regenerating system followed by microsomal addition and measured upto 60 mins by HPLC analysis; format: ADME, Microsome; conditions: time 65 min

| IC50 [1] | EC50 [2] | Compound | further results |
| --- | --- | --- | --- |
| 22 nM | 1590 nM | COc1ccc(CNC(=O)c2ccc3c(cnn3Cc3cccc(F)c3)c2)c(C(F)(F)F)c1 | – |
| 310 nM | 850 nM | COc1ccc(CNC(=O)c2ccc3c(ccn3Cc3cccc(F)c3)c2)c(C(F)(F)F)c1 | – |
| 87 nM | – | O=C(NCc1ccccc1C(F)(F)F)c1ccc2c(c1)[nH]c(=O)n2Cc1cccc(Cl)c1 | – |
| 29 nM | 1480 nM | O=C(NCc1ccc(NS(=O)(=O)C2CC2)cc1C(F)(F)F)c1ccc2[nH]ccc2c1 | – |
| 28 nM | – | COc1ccc(CNC(=O)c2ccc3c(c2)[nH]c(=O)n3Cc2ccccc2)c(C(F)(F)F)c1 | – |
| 5 nM | 490 nM | CC(C)n1ccc2cc(C(=O)NCc3ccc(NS(=O)(=O)C4CC4)cc3C(F)(F)F)ccc21 | – |
| 321 nM | – | O=C(NCc1ccccc1C(F)(F)F)c1ccc2c(ccn2Cc2cccc(F)c2)c1 | – |
| 197 nM | – | O=C(NCc1ccccc1C(F)(F)F)c1ccc2c(c1)[nH]c(=O)n2Cc1ccc(Cl)cc1 | Activity [3]: inactive |
| 40 nM | – | COc1ccc(CNC(=O)c2ccc3c(c2)ncn3Cc2cccc(F)c2)c(C(F)(F)F)c1 | – |
| 322 nM | – | O=C(NCc1ccccc1C(F)(F)F)c1ccc2c(c1)[nH]c(=O)n2CC1CCCCC1 | – |
| 1090 nM | – | O=C(NCc1ccccc1C(F)(F)F)c1ccc2c(c1)[nH]c(=O)n2Cc1ccc(Cl)c(Cl)c1 | – |
| 5 nM | – | O=C(NCc1ccc(NC(=O)C(F)(F)F)cc1C(F)(F)F)c1ccc2c(ccn2Cc2cccc(F)c2)c1 | – |
| 107 nM | – | O=C(NCc1ccccc1C(F)(F)F)c1ccc2c(c1)ncn2Cc1cccc(F)c1 | – |
| 171 nM | – | O=C(NCc1ccccc1C(F)(F)F)c1ccc2c(c1)[nH]c(=O)n2Cc1ccccc1Cl | – |
| 319 nM | – | COc1ccccc1Cn1c(=O)[nH]c2cc(C(=O)NCc3ccccc3C(F)(F)F)ccc21 | Activity [3]: inactive |
| 29 nM | – | COc1ccc(CNC(=O)c2ccc3c(c2)[nH]c(=O)n3Cc2cccc(F)c2)c(C(F)(F)F)c1 | – |

| IC50 [1] | EC50 [2] | Compound | further results |
| --- | --- | --- | --- |
| 55 nM | – | O=C(NCc1ccccc1C(F)(F)F)c1ccc2c(c1)[nH]c(=O)n2Cc1ccccc1F | Activity [3]: inactive |
| 28 nM | – | CN(C)CCn1ccc2cc(C(=O)NCc3ccc(NS(=O)(=O)C4CC4)cc3C(F)(F)F)ccc21 | Activity [3]: inactive |
| 82 nM | – | O=C(NCc1ccccc1C(F)(F)F)c1ccc2c(c1)[nH]c(=O)n2Cc1ccccc1 | – |
| 153 nM | 120 nM | O=C(NCc1ccccc1C(F)(F)F)c1ccc2c(c1)[nH]c(=O)n2Cc1cccc(F)c1 | – |
| 36 nM | 1600 nM | O=C(NCc1ccccc1C(F)(F)F)c1ccc2c(cnn2Cc2cccc(F)c2)c1 | – |
| 2 nM | – | CC(C)Cn1ccc2cc(C(=O)NCc3ccc(NS(=O)(=O)C4CC4)cc3C(F)(F)F)ccc21 | half-life at 10 µM [4]: 41 min; half-life at 10 µM [5]: 53 min; half-life at 10 µM [6]: 76 min |
| 48 nM | – | O=C(NCc1ccccc1C(F)(F)F)c1ccc2c(c1)[nH]c(=O)n2Cc1cc(F)cc(F)c1 | – |
| 100 nM | – | O=C(NCc1ccccc1C(F)(F)F)c1ccc2c(c1)[nH]c(=O)n2Cc1ccc(Cl)cc1Cl | Activity [3]: inactive |
| 2 nM | 1050 nM | CC(C)S(=O)(=O)n1ccc2cc(C(=O)NCc3ccc(NS(=O)(=O)C4CC4)cc3C(F)(F)F)ccc21 | – |
| 7 nM | – | Nc1ccc(CNC(=O)c2ccc3c(ccn3Cc3cccc(F)c3)c2)c(C(F)(F)F)c1 | – |
| 3 nM | 370 nM | CCS(=O)(=O)Nc1ccc(CNC(=O)c2ccc3c(ccn3Cc3cccc(F)c3)c2)c(C(F)(F)F)c1 | – |
| 142 nM | – | O=C(NCc1ccccc1C(F)(F)F)c1ccc2c(c1)[nH]c(=O)n2Cc1ccc(F)cc1 | Activity [3]: inactive |
| 6 nM | 1350 nM | CS(=O)(=O)Cc1ccc(CNC(=O)c2ccc3c(ccn3Cc3cccc(F)c3)c2)c(C(F)(F)F)c1 | – |
| 304 nM | – | O=C(NCc1ccccc1C(F)(F)F)c1ccc2c(c1)[nH]c(=O)n2Cc1ccccc1C(F)(F)F | – |
| 6 nM | 1430 nM | CSCc1ccc(CNC(=O)c2ccc3c(ccn3Cc3cccc(F)c3)c2)c(C(F)(F)F)c1 | – |
| 456 nM | – | O=C(NCc1ccccc1C(F)(F)F)c1ccc2c(c1)[nH]c(=O)n2Cc1ccccn1 | Activity [3]: inactive |
